Assays:
Assay type in all cases: in vivo
[1] = tested on: giant foxtail (Setaria viridis); test: Test A postemergence, sprayed to runoff; conditions: approx. eleven days
Protocol: (§1) Seeds of barnyardgrass (Echinochloa crus-galli), crabgrass (Digitaria spp.), giant foxtail (Setaria viridis), morning glory (Ipomoea spp.), redroot pigweed (Amaranthus retroflexus) and velvetleaf (Abutilon theophrasti) were planted into a sandy loam soil and treated preemergence by soil drench with test chemicals formulated in a non-phytotoxic solvent mixture which included a surfactant. At the same time, these crop and weed species were also treated postemergence sprayed to runoff with test chemicals formulated in the same manner. Plants ranged in height from two to eighteen cm and were in the one- to two-leaf stage for the postemergence treatment. Treated plants and untreated controls were maintained in a greenhouse for approximately eleven days, after which time all treated plants were compared to untreated controls and visually evaluated for injury. Plant response ratings, summarized in Table A, are based on a 0 to 10 scale where 0 is no effect and 10 is complete control. A dash (-) response means no test results.

[2] = tested on: redroot pigweed (Amaranthus retroflexus); test: Test A postemergence, sprayed to runoff; conditions: approx. eleven days
Protocol: as §1

[3] = tested on: barnyardgrass (Echinochloa crus-galli); test: Test A postemergence, sprayed to runoff; conditions: approx. eleven days
Protocol: as §1

[4] = tested on: crabgrass (Digitaria spp.); test: Test A postemergence, sprayed to runoff; conditions: approx. eleven days
Protocol: as §1

[5] = tested on: velvetleaf (Abutilon theophrasti); test: Test A postemergence, sprayed to runoff; design: scale not given here; conditions: approx. eleven days
Protocol: as §1

[6] = tested on: morning glory (Ipomoea spp.); test: Test A postemergence, sprayed to runoff; design: scale not given here; conditions: Morningglory, approx. eleven days
Protocol: as §1

[7] = tested on: giant foxtail (Setaria viridis); test: Test A preemergence, soil drench; conditions: approx. eleven days
Protocol: as §1

[8] = tested on: redroot pigweed (Amaranthus retroflexus); test: Test A preemergence, soil drench; conditions: approx. eleven days
Protocol: as §1

[9] = tested on: velvetleaf (Abutilon theophrasti); test: Test A preemergence, soil drench; conditions: approx. eleven days
Protocol: as §1

[10] = tested on: barnyardgrass (Echinochloa crus-galli); test: Test A preemergence, soil drench; conditions: approx. eleven days
Protocol: as §1

[11] = tested on: morning glory (Ipomoea spp.); test: Test A preemergence, soil drench; conditions: Morningglory, approx. eleven days
Protocol: as §1

[12] = tested on: crabgrass (Digitaria spp.); test: Test A preemergence, soil drench; conditions: approx. eleven days
Protocol: as §1

| SMILES | Plant response rating (visual injury vs untreated controls) ([1]; Rate 500 g/ha) | Plant response rating (visual injury vs untreated controls) ([1]; Rate 2000 g/ha) | Plant response rating (visual injury vs untreated controls) ([2]; Rate 500 g/ha) | Plant response rating (visual injury vs untreated controls) ([2]; Rate 2000 g/ha) | Plant response rating (visual injury vs untreated controls) ([3]; Rate 500 g/ha) | Plant response rating (visual injury vs untreated controls) ([3]; Rate 2000 g/ha) | Plant response rating (visual injury vs untreated controls) ([4]; Rate 500 g/ha) | Plant response rating (visual injury vs untreated controls) ([4]; Rate 2000 g/ha) | Plant response rating (visual injury vs untreated controls) ([5]; Rate 500 g/ha) | Plant response rating (visual injury vs untreated controls) ([5]; Rate 2000 g/ha) | Plant response rating (visual injury vs untreated controls) ([6]; Rate 500 g/ha) | Plant response rating (visual injury vs untreated controls) ([6]; Rate 2000 g/ha) | Plant response rating (visual injury vs untreated controls) ([7]; Rate 500 g/ha) | Plant response rating (visual injury vs untreated controls) ([7]; Rate 2000 g/ha) | Plant response rating (visual injury vs untreated controls) ([8]; Rate 500 g/ha) | Plant response rating (visual injury vs untreated controls) ([8]; Rate 2000 g/ha) | Plant response rating (visual injury vs untreated controls) ([9]; Rate 500 g/ha) | Plant response rating (visual injury vs untreated controls) ([9]; Rate 2000 g/ha) | Plant response rating (visual injury vs untreated controls) ([10]; Rate 500 g/ha) | Plant response rating (visual injury vs untreated controls) ([10]; Rate 2000 g/ha) | other results |
| --- | --- | --- | --- | --- | --- | --- | --- | --- | --- | --- | --- | --- | --- | --- | --- | --- | --- | --- | --- | --- | --- |
| CC(C)c1ccn(C2OCN(c3cccc(C(F)(F)F)c3)C2=O)n1 (stereo not drawn) [Compound 27] | 50 | 90 | 20 | 80 | 70 | 80 | 20 | 60 | 0 | 20 | 0 | 20 | 100 | 100 | 100 | 100 | 20 | 10 | 100 | 100 | Plant response rating (visual injury vs untreated controls) ([11]; Rate 500 g/ha): 0; Plant response rating (visual injury vs untreated controls) ([11]; Rate 2000 g/ha): 20; Plant response rating (visual injury vs untreated controls) ([12]; Rate 500 g/ha): 100; Plant response rating (visual injury vs untreated controls) ([12]; Rate 2000 g/ha): 90 |
| O=C1C(n2ccc(C3CC3)n2)SCN1c1cccc(C(F)(F)F)c1 (stereo not drawn) [Compound 26] | 50 | 100 | 40 | 80 | 90 | 90 | 30 | 20 | 10 | 10 | 20 | 50 | 100 | 100 | 100 | 100 | 50 | 40 | 100 | 100 | Plant response rating (visual injury vs untreated controls) ([11]; Rate 500 g/ha): 0; Plant response rating (visual injury vs untreated controls) ([11]; Rate 2000 g/ha): 30; Plant response rating (visual injury vs untreated controls) ([12]; Rate 500 g/ha): 100; Plant response rating (visual injury vs untreated controls) ([12]; Rate 2000 g/ha): 100 |
| CC1CCc2cn(C3CCN(c4cccc(C(F)(F)F)c4)C3=O)nc21 (stereo not drawn) [Compound 11] | 0 | 50 | 70 | 90 | 20 | 40 | 0 | 10 | 0 | 0 | 10 | 10 | 100 | 100 | 100 | 100 | 0 | 20 | 100 | 100 | Plant response rating (visual injury vs untreated controls) ([11]; Rate 500 g/ha): 0; Plant response rating (visual injury vs untreated controls) ([11]; Rate 2000 g/ha): 0; Plant response rating (visual injury vs untreated controls) ([12]; Rate 500 g/ha): 100; Plant response rating (visual injury vs untreated controls) ([12]; Rate 2000 g/ha): 100 |

Reference: patent publication US7138361B2, “Herbicidal heterocycles” (E. I. du Pont de Nemours and Company, priority 2000, dated 2006)
